Assay results as given in article PMC8596838, “Xylose‐Configured Cyclophellitols as Selective Inhibitors for Glucocerebrosidase” (Chembiochem, 2021).

Columns and labels:
Assay type in all cases: biochemical
Details in all cases: cell lysate, 30 min incubation
GBA3 = target: T1, GBA3 (Homo sapiens, UniProt Q9H227); test: Competitive ABPP (cABPP) with ABP 10 in HEK293T cell lysates, GBA3
T1 construct: expressed in transfected cells; host or cells: HEK293T (GBA/GBA2 KO background for the fluorogenic assay; endogenous-GBA background with GBA2 and GBA3 overexpressed for ABPP and intact-cell assays)
T1 sequence (Q9H227 1-469): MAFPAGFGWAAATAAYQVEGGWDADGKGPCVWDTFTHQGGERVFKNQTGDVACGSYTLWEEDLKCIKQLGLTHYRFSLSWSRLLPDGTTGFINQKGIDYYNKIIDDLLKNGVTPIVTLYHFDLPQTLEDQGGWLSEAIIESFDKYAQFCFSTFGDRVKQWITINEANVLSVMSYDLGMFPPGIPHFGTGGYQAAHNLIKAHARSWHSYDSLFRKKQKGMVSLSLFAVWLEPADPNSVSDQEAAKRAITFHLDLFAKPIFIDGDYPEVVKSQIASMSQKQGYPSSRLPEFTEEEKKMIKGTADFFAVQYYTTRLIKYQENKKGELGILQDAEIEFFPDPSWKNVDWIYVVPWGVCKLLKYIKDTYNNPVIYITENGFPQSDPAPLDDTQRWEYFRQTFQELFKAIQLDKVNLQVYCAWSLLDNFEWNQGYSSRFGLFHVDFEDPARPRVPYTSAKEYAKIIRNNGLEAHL
Protocol: (§1) In the first instance, the inhibitory potency of 1 and 2 for GBA, GBA2, and GBA3 was assessed by competitive activity‐based protein profiling (cABPP). For this, we first generated HEK293T cells that contain endogenous GBA and overexpress human GBA2 and GBA3.
(§2) Figure 3 Selectivity of compounds visualized by competitive ABPP labeling of β‐D‐glucosidase. Lysates of HEK293T cells expressing human GBA, GBA2 and GBA3 were incubated with compounds 1–5 at indicated concentrations for 30 min, following by cABPP with ABP 10.
(§3) ABP labeling procedure: Glycosidases were labeled with excess fluorescent ABPs at optimum conditions. ABP labeling was performed at 37 °C for 30 min for all materials (if not otherwise stated), in a total sample volume of 20–40 μL and 0.5–1 % DMSO concentration. GBA was labeled with 200 nM ABP 9 (pH 5.2, 0.1 % (v/v) Triton‐100, 0.2 % (w/v) sodium taurocholate), or labeled together with GBA2 using 200 nM β‐D‐glucose‐configured aziridine ABP 10 at pH 5.8, or labeling together with GBA2 and GBA3 using 200 nM β‐D‐glucose‐configured aziridine ABP 10 at pH 6.0. After ABP incubation, proteins were denatured by boiling the samples with 5× Laemmli buffer (50 % (v/v) 1 M Tris‐HCl, pH 6.8, 50 % (v/v) 100 % glycerol, 10 % (w/v) DTT, 10 % (w/v) SDS, 0.01 % (w/v) bromophenol blue) for 5 min at 98 °C, and separated by electrophoresis on 10 % (w/v) SDS‐PAGE gels running continuously at 90 V. Wet slab‐gels were scanned on fluorescence using the Typhoon FLA 9500 (GE Healthcare) at λEX 473 nm and λEM≥510 nm for green fluorescent ABP 8; and at λEX 635 nm and λEM≥665 nm for ABP 6, 9 and 10. ABP‐emitted fluorescence was quantified using ImageQuant software (GE Healthcare, Chicago, IL, USA) and curve‐fitted using Prism 8.0 (GraphPad Software). After fluorescence scanning, SDS‐PAGE gels were stained for total protein with Coomassie G250 and scanned on a ChemiDoc MP imager (Bio‐Rad, Hercules, CA, USA).[25]

GBA2 = target: T2, GBA2 (Homo sapiens, UniProt Q9HCG7); test: Competitive ABPP (cABPP) with ABP 10 in HEK293T cell lysates, GBA2
T2 construct: expressed in transfected cells; host or cells: HEK293T (GBA/GBA2 KO background for the fluorogenic assay; endogenous-GBA background with GBA2 and GBA3 overexpressed for ABPP and intact-cell assays)
T2 sequence (Q9HCG7 1-927): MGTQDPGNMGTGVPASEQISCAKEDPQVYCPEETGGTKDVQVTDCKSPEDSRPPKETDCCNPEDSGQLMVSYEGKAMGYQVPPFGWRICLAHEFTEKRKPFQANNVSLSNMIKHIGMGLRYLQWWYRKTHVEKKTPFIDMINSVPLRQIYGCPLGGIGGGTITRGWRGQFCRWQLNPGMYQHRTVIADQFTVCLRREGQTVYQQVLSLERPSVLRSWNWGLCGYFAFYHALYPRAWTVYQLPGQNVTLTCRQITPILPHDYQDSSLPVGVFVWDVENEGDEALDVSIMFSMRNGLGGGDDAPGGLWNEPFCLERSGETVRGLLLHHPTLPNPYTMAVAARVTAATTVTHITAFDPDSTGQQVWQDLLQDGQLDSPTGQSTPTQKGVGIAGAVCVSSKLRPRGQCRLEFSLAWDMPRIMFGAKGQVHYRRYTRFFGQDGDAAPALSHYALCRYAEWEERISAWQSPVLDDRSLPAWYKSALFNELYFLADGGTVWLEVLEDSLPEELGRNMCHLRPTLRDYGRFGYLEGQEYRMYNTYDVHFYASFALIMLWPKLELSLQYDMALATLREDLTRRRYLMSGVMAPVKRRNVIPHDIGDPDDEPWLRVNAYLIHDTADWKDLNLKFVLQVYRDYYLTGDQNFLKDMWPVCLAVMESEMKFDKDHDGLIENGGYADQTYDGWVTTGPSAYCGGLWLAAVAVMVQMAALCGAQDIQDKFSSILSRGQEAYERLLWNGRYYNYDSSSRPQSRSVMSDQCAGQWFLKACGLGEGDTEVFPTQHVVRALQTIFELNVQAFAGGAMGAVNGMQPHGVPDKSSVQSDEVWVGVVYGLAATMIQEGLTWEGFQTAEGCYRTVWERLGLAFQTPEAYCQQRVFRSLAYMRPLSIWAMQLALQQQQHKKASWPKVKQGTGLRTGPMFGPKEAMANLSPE
Protocol: as §1, §2, §3

GBA = target: T3, GBA (Homo sapiens, UniProt P04062); test: Competitive ABPP (cABPP) with ABP 10 in HEK293T cell lysates, GBA
T3 construct: HEK293T cells that contain endogenous GBA; endogenous in cells; host or cells: HEK293T (ATCC CRL-3216) overexpressing GBA2 and GBA3
T3 sequence (P04062 40-536): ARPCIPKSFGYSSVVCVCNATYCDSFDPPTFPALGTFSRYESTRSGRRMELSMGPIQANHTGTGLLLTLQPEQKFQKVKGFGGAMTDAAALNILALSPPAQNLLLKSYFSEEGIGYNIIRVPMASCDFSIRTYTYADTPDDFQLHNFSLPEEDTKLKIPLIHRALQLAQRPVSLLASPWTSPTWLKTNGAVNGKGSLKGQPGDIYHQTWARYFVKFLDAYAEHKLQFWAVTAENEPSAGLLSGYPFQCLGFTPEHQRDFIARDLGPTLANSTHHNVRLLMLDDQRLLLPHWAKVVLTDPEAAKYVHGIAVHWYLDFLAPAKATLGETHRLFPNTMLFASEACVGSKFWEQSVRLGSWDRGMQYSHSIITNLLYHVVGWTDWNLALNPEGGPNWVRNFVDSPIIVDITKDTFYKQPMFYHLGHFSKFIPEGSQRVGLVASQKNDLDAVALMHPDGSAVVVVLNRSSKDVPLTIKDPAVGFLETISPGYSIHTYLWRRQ
Protocol: as §1, §2, §3

| competition of ABP 10 labeling of GBA2 (GBA2) | Structure (SMILES) | competition of ABP 10 labeling of GBA3 (GBA3) | concentration competing ABP 10 labeling of GBA (GBA) | concentration competing ABP 10 labeling of GBA2 (GBA2) | competition of ABP 10 labeling of GBA (GBA) |
| --- | --- | --- | --- | --- | --- |
| but not that of GBA2 or GBA3 | O[C@@H]1[C@@H](O)[C@H](O)C[C@H]2O[C@@H]12 [compound 1, xylo‐cyclophellitol] | but not that of GBA2 or GBA3 | 10 to 100 µM | – | – |
| – | O[C@@H]1[C@@H](O)[C@H](O)C[C@H]2N[C@@H]12 [compound 2, β‐D‐xylo‐Cyclophellitol aziridine] | – | 1 to 10 µM | 100 µM | – |
| – | OC[C@@H]1[C@@H](O)[C@H](O)[C@@H](O)[C@@H]2O[C@H]12 [compound 3, cyclophellitol] | with less potency | 0.1 to 1 µM | 0.1 to 1 µM | – |
| – | OC[C@@H]1[C@@H](O)[C@H](O)[C@@H](O)[C@@H]2N[C@H]12 [compound 4, cyclophellitol aziridine, reference compound] | with less potency | 0.1 to 1 µM | 0.1 to 1 µM | – |
| – | [N-]=[N+]=NCCCCCCCCN1[C@H]2[C@H](O)[C@@H](O)[C@H](O)C[C@H]21 (stereo partly shown) [compound 5] | greatly enhances inhibitory potency | – | – | greatly enhances inhibitory potency |
